Series [1] in a line: LNP size and polydispersity index by Dynamic Light Scattering (Malvern Zetasizer). It counts as physicochemical.
A short description of series [2]: mRNA encapsulation efficiency by Ribogreen RNA assay. It counts as physicochemical. Conditions: for % encap: eGFP mRNA. The method, then:
Lipid based nanoparticles are produced by microfluidic mixing of an mRNA solution in sodium acetate buffer (100 mM, pH4) and lipid solution in a 2:1 volume ratio at a speed of 9 mL/min using the NanoAssemblr Benchtop (Precision Nanosystems). The lipid solution contained a mixture of the ionizable lipid of interest, DSPC, DOPC or DOPE (Avanti), Cholesterol (Sigma) and DMG-PEG2000 (Sunbright GM-020, NOF corporation. The 4 lipids were mixed at 6 different molar ratios. LNPs were dialyzed against TBS (10000 times more TBS volume than LNP volume) using slide-a-lyzer dialysis cassettes (20K MWCO, 3 mL, ThermoFisher). Size, polydispersity and zeta potential were measured with a Zetasizer Nano (Malvern). mRNA encapsulation was measured by standard Ribogreen RNA assay (Invitrogen). […]
LNP formulations were prepared using a modified procedure of a method previously described for siRNA LNP synthesis. All formulations were prepared in a sterile manner with a N/P ratio of 10. All lipid components were dissolved in ethanol at molar ratios of 50:10:38.5:1.5 mol % (ionizable lipid/DSPC/Cholesterol/DMG-PEG2000). DSPC, Cholesterol and DMG-PEG2000 were purchased from Avanti Polar Lipids (Alabaster, Alabama, USA), while the Ionizable lipids are synthesized in-house. The final lipid concentration in ethanol was fixed at 10 mg/mL. E7 mRNA was dissolved in 100 mM acetate buffer (Sigma Aldrich, Saint-Louis, Missouri, USA) pH 4. The ethanol and aqueous phase were combined using a microfluidic mixer (NanoAssemblr® BenchTop (Precision Nanosystems, Vancouver, BC) in a 2:1 (aqueous:ethanol) ratio. Formulations were dialysed afterwards against 1× Sterile TBS pH 7.4 (Sigma Aldrich, Saint-Louis, Missouri, USA) using Slide-A-Lyzer® dialysis cassettes with a MWCO of 20.000 Da (Thermo Scientific, Massachusetts, USA) for 18 hours. Afterwards, the purified formulations were concentrated using Amicon ultra centrifugal filters (EMD Millipore, Massachusetts, USA). Finally, the exact concentration and E.E. % was determined through a Ribogreen Assay prior to final dilution with TBS (100 μg/mL E7 mRNA per formulation. All formulations were characterized for size and PDI using Dynamic Light Scattering Zetasizer Nano-ZS (Malvern Pananlytical Ltd., Malvern, UK) and stored afterwards at 4° C. The physico-chemical characteristics of each formulation can be found in Table 5.

Setting [3] is: Table 3, LNP ionizable lipid/phospholipid/cholesterol/DMG-PEG2000 about 50/10/38.5/1.5, DOPE, except MC-3 with DSPC, eGFP mRNA.
The mark [4] stands for this setting: Table 3, LNP ionizable lipid/phospholipid/cholesterol/DMG-PEG2000 about 50/10/38.5/1.5, DOPE, except MC-3 with DSPC, eGFP mRNA, in nm (unit assumed).
Where [5] appears, read: Table 3, LNP ionizable lipid/phospholipid/cholesterol/DMG-PEG2000 about 50/10/38.5/1.5, DOPE, except MC-3 with DSPC.
[6] abbreviates: Table 2, LNP ionizable lipid/DOPE/cholesterol/DMG-PEG2000 about 50/10/38.5/1.5, eGFP mRNA.
The mark [7] stands for this setting: Table 2, LNP ionizable lipid/DOPE/cholesterol/DMG-PEG2000 about 50/10/38.5/1.5, eGFP mRNA, mRNA/ionizable lipid molar ratio 1/10, in nm (unit assumed).
Setting [8] is: Table 2, LNP ionizable lipid/DOPE/cholesterol/DMG-PEG2000 about 50/10/38.5/1.5.
The mark [9] stands for this setting: Table 6 (Example 4, HA mRNA), ionizable lipid/DSPC/Chol/DMG-PEG2000 50/10/38.5/1.5 mol %, N/P 10.

SMILES strings stand for the structures.

`CCCCCCCC/C=C\CCCCCCCC(=O)OCC(CNC(=O)OCCOCCOC(=O)NCCCN1CCCCC1CC)OC(=O)CCCCCCC/C=C\CCCCCCCC` (stereo not drawn) [E-Ac6e-DOg] displayed a PDI in series [1] (setting [3]) of 0.241. For the same molecule, in series [1] (setting [4]), the size is given as 67.3. In series [2] (setting [5]), the “% encap” value worked out at 100%.
Molecule `CCCCCCCC/C=C\CCCCCCCC(=O)OCC(CNC(=O)OCCOCCOC(=O)NCCN1CCCCCC1)OC(=O)CCCCCCC/C=C\CCCCCCCC` (stereo not drawn) [E-Ac7-Dog] gave a PDI in series [1] (setting [3]) of 0.258. Further, in series [1] (setting [4]), the size is reported as 93.05. For the same molecule, in series [2] (setting [5]), the “% encap” value amounted to 100%.
The corresponding values for `CCCCCCCC/C=C\CCCCCCCC(=O)OCC(CNC(=O)OCCOCCOC(=O)NCCN(C)C)OC(=O)CCCCCCC/C=C\CCCCCCCC` (stereo not drawn) [E-Adm-Dog] are 0.217, 59.56 and 100%.
On the same counts, the results for `CCCCCCCC/C=C\CCCCCCCC(=O)OCC(CNC(=O)OCCOC(C)(C)OCCOC(=O)NCCCN1CCCCC1CC)OC(=O)CCCCCCC/C=C\CCCCCCCC` (stereo not drawn) [K-Ac6e-DOg] are 0.268, 75.8 and 95%.
For `CCCCCCCCCCCCN(CCCCCCCCCCCC)C(=O)OCCOC(C)(C)OCCOC(=O)NCCN(C(C)C)C(C)C` [K-Adip-Dda], in series [1] (setting [6]), the PDI is recorded as 0.292. Also, the size in series [1] (setting [7]) came to 78.59. For the same molecule, the “% encap” value in series [2] (setting [8]) is 97%.
In turn, `CCCCCCCC/C=C\CCCCCCCC(=O)OCC(CNC(=O)OCCOC(C)(C)OCCOC(=O)NCCN(C)C)OC(=O)CCCCCCC/C=C\CCCCCCCC` (stereo not drawn) [K-Adm-DOg] displayed a PDI in series [1] (setting [3]) of 0.157. In series [1] (setting [4]), the size amounted to 91.9. In addition, the “% encap” value in series [2] (setting [5]) stood at 94%.
With `CCCCCCCCCCCCN(CCCCCCCCCCCC)C(=O)OCCOC(C)(C)OCCOC(=O)NCCN(C)C` [K-Adm-Dda], the PDI in series [1] (setting [6]) is 0.197. Further, the size in series [1] (setting [7]) is reported as 65.56. In series [2] (setting [8]), the “% encap” value is given as 100%.
The corresponding values for `CCCCCCCCCCCCN(CCCCCCCCCCCC)C(=O)OCCSSCCOC(=O)NCCN1CCCCCC1` [S-Ac7-Dda] are 0.223, 74.28 and 95%.
With `CCCCCCCCCCCCCCCCCCN(CCCCCCCCCCCCCCCCCC)C(=O)OCCSSCCOC(=O)NCCN1CCCCCC1` [S-Ac7-Dsa], the PDI in series [1] (setting [6]) is given as 0.188; in series [1] (setting [3]), 0.158. Also, the size in series [1] (setting [7]) is 71.05; in series [1] (setting [4]), 89.44. The results for the “% encap” value in series [2] (setting [8]) and in series [2] (setting [5]) were 99% and 93%, respectively.
`CCCCCCCCCCCCN(CCCCCCCCCCCC)C(=O)OCCSSCCOC(=O)NCCN(C(C)C)C(C)C` [S-Adip-Dda] registered a PDI in series [1] (setting [6]) of 0.197. Further, the size in series [1] (setting [7]) turned out to be 86.95. For the same molecule, in series [2] (setting [8]), the “% encap” value was determined as 98%.
On the same counts, the results for `CCCCCCCCCCCCCCCCCCN(CCCCCCCCCCCCCCCCCC)C(=O)OCCSSCCOC(=O)NCCN(C(C)C)C(C)C` [S-Adip-Dsa] are 0.153, 70.9 and 101%.
In series [1] (setting [9]), `CCCCCCCCC(CCCCCC)C(=O)OCCN(CCOC(=O)C(CCCCCC)CCCCCCCC)C(=O)OCCSSCCOC(=O)NCCN(C)C` (stereo not drawn) [S-Adm-DHDa] displayed a PDI of 0.184 and a size of 79.075 nm. In addition, the “E.E. (encapsulation efficiency)” value in series [2] (setting [9]) was found to be 98%.
The molecule `CCCCCCCC/C=C\CCCCCCCC(=O)OCC(CNC(=O)OCCSSCCOC(=O)NCCN(C)C)OC(=O)CCCCCCC/C=C\CCCCCCCC` (stereo not drawn) [S-Adm-DOg] displayed a PDI in series [1] (setting [3]) of 0.3. In series [1] (setting [4]), this molecule had a size of 68.08. The “% encap” value in series [2] (setting [5]) worked out at 98%.
In the case of `CCCCCCCCCCCCN(CCCCCCCCCCCC)C(=O)OCCSSCCOC(=O)NCCN(C)C` [S-Adm-Dda], the PDI in series [1] (setting [6]) is 0.44. Also, the size in series [1] (setting [7]) is recorded as 115.3. Besides, the “% encap” value in series [2] (setting [8]) amounted to 100%.
For `CCCCCCCCCCCCCCCCCCN(CCCCCCCCCCCCCCCCCC)C(=O)OCCSSCCOC(=O)NCCN(C)C` [S-Adm-Dsa], the values for the PDI in series [1] (setting [6]) and in series [1] (setting [3]) were 0.042 and 0.137, respectively. Also, the size is given as 82.11 in series [1] (setting [7]) and 91.15 in series [1] (setting [4]). Moreover, the “% encap” value is listed as 98% in series [2] (setting [8]) and 100% in series [2] (setting [5]).

Values taken from patent publication US20240050574A1, “IONIZABLE LIPIDS” (eTheRNA immunotherapies NV, priority 2020, published 2024).
